From patent publication US12319652B2, “Salts and solid forms of (R)-1-(5-methoxy-1H-indol-1-yl)-N,N-dimethylpropan-2-amine” (priority 2021, dated 2025)

Assays:
[1] = Qualitative solubility screen of Compound 1 Fumarate in solvents; type: physicochemical
Method: The salt compound also dissolved in refluxing methylisobutyketone (MIBK) at 15 vol concentration. Consistent with Example 1, the solutions formed were cooled and the IPA, 2-MeTHF and MIBK solutions yielded solid material on cooling. The solid product obtained from MIBK was analyzed by XRPD, TG and ^1H NMR—the XRPD diffractogram is provided as FIG. 1 and the ^1H NMR spectrum is provided as FIG. 2.
Compound 1·Fumarate was soluble in many of the common solvents assessed (predominantly Classes 2 and 3 solvents) at 5.0 vol (200 mg/ml), 10.0 vol, 15.0 vol and 20.0 vol (refer to Table). Solids were isolated on cooling from isopropanol (IPA, 5.0 vol), 2-MeTHF (5.0 vol) and methylisobutylketone (MIBK, 15.0 vol). The products from IPA and 2-MeTHF were gums, and not pursued further.
Compound 1 Fumarate (batch 1, 25 mg, 1 wt) was weighed out in 20 separate vials to qualitatively examine the solubility in an array of diverse solvents. […] If insoluble at 5 vol, the solvent quantity was increased to 10 vol, 15 vol and 20 vol of the respective solvent. The suspensions that occurred upon cooling down were centrifuged and the solvent wet pellets were analysed by XRPD. The insoluble suspensions were additionally worked up for XRPD analysis. The resultant powder patterns were subsequently cross-referenced against the input supplied material.

[2] = Suspension equilibration of compound 1 fumarate at 20 and 40° C.; conditions: 10 vol total
Method: Amorphous compound 1 fumarate was subjected to this technique at ambient temperature (20° C.) and at elevated temperature (40° C.), in a diverse range of solvents.
Amorphous compound 1 fumarate underwent suspension equilibration in 19 single solvents at two different temperature set points (20 and 40° C.). The products were isolated by centrifugation and analysed wet by XRPD. After drying, the samples were reanalyzed.
At 20° C., dissolution or gumming was initially observed in the presence of most solvents; after several days, five of the gums had mobilised to give stable suspensions (refer to entries, Table 61). The products were isolated via centrifugation and the wet pellets were analysed by XRPD, oven dried and reanalysed by XRPD, TGA, DSC and ^1H NMR.
The companion screen performed at 40° C., yielded no hits. Consequently, the screen was repeated in the presence of an appropriate polarity modifier (either heptane or tBME), to ensure activity of the solvent was maintained while generating stable suspensions from the onset (refer to Table 62).
Separate portions of compound 1 (ca 50 mg, 1.0 wt.) were charged to separate vessels. The appropriate solvents (e.g. 250 μl, 5.0 vol), as described in Table and Table were charged to the vessels and the mixtures were stirred for several days at their relevant temperatures e.g. 20 to 40° C. After this time the products were cooled, isolated by centrifugation, analyzed as wet pellet by XRPD and dried under reduced pressure at 40° C. and re-analyzed by XRPD and companion analyses for evidence of alternative crystalline forms (FIGS. 74-77).

[3] = Heat-up/cool down (HUCD) crystallization of compound 1 Fumarate in different solvents
[4] = Heptane (7 parts)/2-Methyl THF (3 part)
[5] = Heptane (7 parts)/2-Propanol (3 part)
[6] = Heptane (7 parts)/Acetone (3 part)
[7] = Heptane (7 parts)/Acetonitrile (3 part)
[8] = Heptane (7 parts)/Chlorobenzene (3 part)
[9] = Heptane (7 parts)/Dichloromethane (3 part)
[10] = Heptane (7 parts)/Ethanol (3 part)
[11] = Heptane (7 parts)/Ethyl acetate (3 part)
[12] = Heptane (7 parts)/Ethyl formate (3 part)
[13] = Heptane (7 parts)/Heptane (3 part)
[14] = Heptane (7 parts)/Isopropyl acetate (3 part)
[15] = Heptane (7 parts)/Methanol (3 part)
[16] = Heptane (7 parts)/Methyl acetate (3 part)
[17] = Heptane (7 parts)/Methylethyl ketone (3 part)
[18] = Heptane (7 parts)/Nitromethane (3 part)
[19] = Heptane (7 parts)/Tetrahydrofuran (3 part)
[20] = Heptane (7 parts)/Toluene (3 part)
[21] = Heptane (7 parts)/Water (3 part)
[22] = Heptane (7 parts)/tert-Butylmethyl ether (3 part)

Compound: COc1ccc2c(ccn2C[C@@H](C)[NH+](C)C)c1.O=C(O)/C=C/C(=O)O [Compound 1 fumarate, (R)-1-(5-methoxy-1H-indol-1-yl)-N,N-dimethylpropan-2-amine fumarate]
- Solid on cooling ([1]; 2-MeTHF, 5 vol): Yes
- Solution at reflux ([1]; 2-MeTHF, 5 vol (200 mg/ml), fumarate): ✓
- Solution at reflux ([1]; 2-MeTHF, 5 vol (200 mg/ml), listed as fumarate salt, fumarate): soluble
- Solution at 20° C. ([1]; Acetone, 5 vol (200 mg/ml), fumarate): ✓
- Solution at 20° C. ([1]; Acetone, 5 vol (200 mg/ml), listed as fumarate salt, fumarate): soluble
- Solution at 20° C. ([1]; Butanol, 5 vol (200 mg/ml), fumarate): ✓
- Solution at 20° C. ([1]; Butanol, 5 vol (200 mg/ml), listed as fumarate salt, fumarate): soluble
- Solution at 20° C. ([1]; DCM, 5 vol (200 mg/ml), fumarate): ✓
- Solution at 20° C. ([1]; DCM, 5 vol (200 mg/ml), listed as fumarate salt, fumarate): soluble
- Solid on cooling ([1]; Dioxane, 5 vol): No
- Solution at 40° C. ([1]; Dioxane, 5 vol (200 mg/ml), fumarate): ✓
- Solution at 40° C. ([1]; Dioxane, 5 vol (200 mg/ml), listed as fumarate salt, fumarate): soluble
- Solution at 20° C. ([1]; Ethanol, 5 vol (200 mg/ml), fumarate): ✓
- Solution at 20° C. ([1]; Ethanol, 5 vol (200 mg/ml), listed as fumarate salt, fumarate): soluble
- Solid on cooling ([1]; IPA, 5 vol): Yes
- Solution at 40° C. ([1]; IPA, 5 vol (200 mg/ml), fumarate): ✓
- Solution at 40° C. ([1]; IPA, 5 vol (200 mg/ml), listed as fumarate salt, fumarate): soluble
- Solution at 20° C. ([1]; MEK, 5 vol (200 mg/ml), fumarate): ✓
- Solution at 20° C. ([1]; MEK, 5 vol (200 mg/ml), listed as fumarate salt, fumarate): soluble
- Solid on cooling ([1]; MIBK, 10, 15 & 20 vol): Yes
- Solution at reflux ([1]; MIBK, 10, 15 & 20 vol): ✓
- Dissolution in refluxing methylisobutyketone (MIBK) ([1]; MIBK, reflux, 15 vol concentration): dissolved
- Solution at 20° C. ([1]; MeCN, 5 vol (200 mg/ml), fumarate): ✓
- Solution at 20° C. ([1]; MeCN, 5 vol (200 mg/ml), listed as fumarate salt, fumarate): soluble
- Solution at 20° C. ([1]; Methanol, 5 vol (200 mg/ml), fumarate): ✓
- Solution at 20° C. ([1]; Methanol, 5 vol (200 mg/ml), listed as fumarate salt, fumarate): soluble
- Solution at 20° C. ([1]; THF, 5 vol (200 mg/ml), fumarate): ✓
- Solution at 20° C. ([1]; THF, 5 vol (200 mg/ml), listed as fumarate salt, fumarate): soluble
- Solution at 20° C. ([1]; Water, 5 vol (200 mg/ml), fumarate): ✓
- Solution at 20° C. ([1]; Water, 5 vol (200 mg/ml), listed as fumarate salt, fumarate): soluble
- Observations (t = 0 @ 40° C.) [2, 4]: Gum
- XRPD (post oven dried) [2, 4]: Pattern #1
- XRPD (wet) [2, 4]: Pattern #1
- Observations (t = 3 d) @ 40° C.) [2, 5]: Suspension
- XRPD (post oven dried) [2, 5]: Pattern #1
- XRPD (wet) [2, 5]: Pattern #1
- Observations (t = 0 @ 40° C.) [2, 6]: Gum
- Observations (t = 1 d) @ 40° C.) [2, 6]: Gum
- Observations (t = 3 d) @ 40° C.) [2, 6]: Gum/oil
- Observations (t = 7 d @ 40° C.) [2, 6]: Gum
- XRPD (post oven dried) [2, 6]: Pattern #1
- XRPD (wet) [2, 6]: Pattern #1
- Observations (t = 0 @ 40° C.) [2, 7]: Oil (biphasic)
- Observations (t = 1 d) @ 40° C.) [2, 7]: Oil (biphasic)
- Observations (t = 3 d) @ 40° C.) [2, 7]: Oil (biphasic)
- Observations (t = 7 d @ 40° C.) [2, 7]: Oil (biphasic)
- Observations (t = 0 @ 40° C.) [2, 8]: Gum
- Observations (t = 1 d) @ 40° C.) [2, 8]: Gum
- XRPD (post oven dried) [2, 8]: Pattern #1
- XRPD (wet) [2, 8]: Pattern #1
- XRPD (post oven dried) [2, 9]: Pattern #1
- XRPD (wet) [2, 9]: Pattern #1
- Observations (t = 3 d) @ 40° C.) [2, 10]: Suspension
- XRPD (post oven dried) [2, 10]: Pattern #1
- XRPD (wet) [2, 10]: Pattern #1
- Observations (t = 0 @ 40° C.) [2, 11]: Gum
- Observations (t = 1 d) @ 40° C.) [2, 11]: Gum
- Observations (t = 3 d) @ 40° C.) [2, 11]: Gum
- Observations (t = 7 d @ 40° C.) [2, 11]: Oil/gum
- Observations (t = 3 d) @ 40° C.) [2, 12]: Gum
- XRPD (post oven dried) [2, 12]: Pattern #1
- XRPD (wet) [2, 12]: Pattern #1
- Observations (t = 0 @ 40° C.) [2, 13]: Gum
- Observations (t = 1 d) @ 40° C.) [2, 13]: Gum
- XRPD (post oven dried) [2, 13]: Pattern #1
- XRPD (wet) [2, 13]: Pattern #1
- Observations (t = 0 @ 40° C.) [2, 14]: Gum
- XRPD (post oven dried) [2, 14]: Pattern #1
- XRPD (wet) [2, 14]: Pattern #1
- Observations (t = 0 @ 40° C.) [2, 15]: Oil (biphasic)
- Observations (t = 1 d) @ 40° C.) [2, 15]: Oil (biphasic)
- Observations (t = 3 d) @ 40° C.) [2, 15]: Biphasic (oil)
- Observations (t = 7 d @ 40° C.) [2, 15]: Oil (biphasic)
- XRPD (post oven dried) [2, 15]: Pattern #1
- XRPD (wet) [2, 15]: Pattern #1
- XRPD (post oven dried) [2, 16]: Pattern #1
- XRPD (wet) [2, 16]: Pattern #1
- Observations (t = 0 @ 40° C.) [2, 17]: Gum
- XRPD (post oven dried) [2, 17]: Pattern #1
- XRPD (wet) [2, 17]: Pattern #1
- Observations (t = 0 @ 40° C.) [2, 18]: Oil (biphasic)
- Observations (t = 1 d) @ 40° C.) [2, 18]: Oil (biphasic)
- Observations (t = 3 d) @ 40° C.) [2, 18]: Oil (biphasic)
- Observations (t = 0 @ 40° C.) [2, 19]: Gum
- XRPD (post oven dried) [2, 19]: Pattern #1
- XRPD (wet) [2, 19]: Pattern #1
- Observations (t = 0 @ 40° C.) [2, 20]: Gum
- Observations (t = 1 d) @ 40° C.) [2, 20]: Gum
- XRPD (post oven dried) [2, 20]: Pattern #1
- XRPD (wet) [2, 20]: Pattern #1
- Observations (t = 0 @ 40° C.) [2, 21]: Oil (biphasic)
- Observations (t = 1 d) @ 40° C.) [2, 21]: Oil (biphasic)
- Observations (t = 3 d) @ 40° C.) [2, 21]: Oil (biphasic)
- Observations (t = 7 d @ 40° C.) [2, 21]: Oil (biphasic)
- Observations (t = 0 @ 40° C.) [2, 22]: Gum
- Observations (t = 1 d) @ 40° C.) [2, 22]: Gum
- Observations (t = 3 d) @ 40° C.) [2, 22]: Gum
- Observations (t = 7 d @ 40° C.) [2, 22]: Oil/gum
- Form XRPD (oven dried) ([3]; Heptane (5 vol) + Dichloromethane 160 μl): Pattern 1
- Form XRPD (oven dried) ([3]; Heptane (5 vol) + Dioxane 240 μl): Pattern 1
- Observations (t = 3 d @ 20° C.) ([3]; Heptane (5 vol) + Ethanol 180 μl): suspension
- Observations (t = 0 @ T = 20° C.) ([3]; Heptane (5 vol) + Methylethyl ketone 100 μl): suspension
- Form XRPD (oven dried) ([3]; Heptane (5 vol) + tert-Butylmethyl ether 300 μl): Pattern 1
- Observations (t = 3 d @ 20° C.) ([3]; Water (5 vol) + Ethanol 80 μl): solution
